In assay [1] the target is T1, Retinoic acid receptor RXR-gamma (Homo sapiens, UniProt P48443).
T1 sequence (P48443 whole entry): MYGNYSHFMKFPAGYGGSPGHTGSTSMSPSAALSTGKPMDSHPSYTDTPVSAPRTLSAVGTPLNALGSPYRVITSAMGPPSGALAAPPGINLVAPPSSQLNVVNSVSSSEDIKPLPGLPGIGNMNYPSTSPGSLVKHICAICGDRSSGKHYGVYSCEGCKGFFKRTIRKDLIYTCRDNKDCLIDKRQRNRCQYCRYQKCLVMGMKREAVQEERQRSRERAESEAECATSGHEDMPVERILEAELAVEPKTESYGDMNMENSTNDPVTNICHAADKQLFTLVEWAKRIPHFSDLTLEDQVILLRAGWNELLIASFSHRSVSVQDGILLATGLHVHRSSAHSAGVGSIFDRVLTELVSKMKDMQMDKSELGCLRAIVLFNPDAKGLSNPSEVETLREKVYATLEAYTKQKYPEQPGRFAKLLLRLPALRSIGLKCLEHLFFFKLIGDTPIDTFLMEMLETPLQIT
As to the kind of experiment: Transcriptional activity was evaluated in CV-1 cells transfected with expression vector for Retinoic acid receptor RXR-gamma.

The target in assay [2] is T2, Retinoic acid receptor RXR-alpha (Homo sapiens, UniProt P19793).
T2 sequence (P19793 whole entry): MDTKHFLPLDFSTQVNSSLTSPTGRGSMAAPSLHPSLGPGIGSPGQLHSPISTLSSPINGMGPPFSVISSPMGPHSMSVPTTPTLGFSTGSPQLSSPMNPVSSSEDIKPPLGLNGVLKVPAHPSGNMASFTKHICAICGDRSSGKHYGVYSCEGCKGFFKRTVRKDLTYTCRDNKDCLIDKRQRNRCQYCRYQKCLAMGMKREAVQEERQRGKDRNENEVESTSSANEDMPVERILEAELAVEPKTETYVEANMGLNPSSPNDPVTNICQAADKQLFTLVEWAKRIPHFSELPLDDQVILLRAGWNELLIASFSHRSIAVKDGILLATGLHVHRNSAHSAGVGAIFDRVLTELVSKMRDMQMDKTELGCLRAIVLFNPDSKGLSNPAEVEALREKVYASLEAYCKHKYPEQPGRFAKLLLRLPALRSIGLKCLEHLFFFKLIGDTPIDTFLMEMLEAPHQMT
The assay is described as follows: Transcriptional activity was evaluated in CV-1 cells transfected with expression vector for Retinoic acid receptor RXR-alpha.

Assay [3] concerns the target T3, Retinoic acid receptor RXR-beta (Homo sapiens, UniProt P28702).
T3 sequence (P28702 whole entry): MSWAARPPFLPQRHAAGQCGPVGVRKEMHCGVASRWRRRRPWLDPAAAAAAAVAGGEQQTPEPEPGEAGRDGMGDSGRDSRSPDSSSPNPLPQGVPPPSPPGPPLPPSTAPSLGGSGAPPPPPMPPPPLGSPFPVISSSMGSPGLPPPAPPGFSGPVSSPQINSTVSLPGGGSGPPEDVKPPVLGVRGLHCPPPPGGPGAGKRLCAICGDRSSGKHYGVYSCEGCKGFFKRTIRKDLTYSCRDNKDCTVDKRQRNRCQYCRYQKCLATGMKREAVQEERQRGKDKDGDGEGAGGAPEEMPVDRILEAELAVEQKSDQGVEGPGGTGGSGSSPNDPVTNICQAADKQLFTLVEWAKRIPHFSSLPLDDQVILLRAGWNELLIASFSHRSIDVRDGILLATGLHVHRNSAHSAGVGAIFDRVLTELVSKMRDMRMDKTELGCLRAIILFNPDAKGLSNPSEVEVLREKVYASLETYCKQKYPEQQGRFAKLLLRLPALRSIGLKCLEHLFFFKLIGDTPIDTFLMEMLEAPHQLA
As to the kind of experiment: Transcriptional activity was evaluated in CV-1 cells transfected with expression vector for Retinoic acid receptor RXR-beta.

Assay [4] concerns the target T3, Retinoic acid receptor RXR-beta. As to the kind of experiment: Binding affinity towards recombinantly expressed Retinoic acid receptor RXR-beta in baculoviral system, by using 5 nM [3H]targretin in a competitive binding assay.

Experimental findings from BindingDB's records for doi:10.1021/jm980621r (Ligand Pharmaceuticals, 1999) are described below.

Molecules are shown by their SMILES.

Regarding `CCO/N=C(/c1ccc(C(=O)O)cc1)c1cc2c(cc1C)C(C)(C)CCC2(C)C`, the values for the EC50 in assay [1], in assay [2] and in assay [3] were 34 nM, 46 nM and 165 nM, respectively. The inhibition constant Ki in assay [4] was found to be 120 nM.

By EC50 is commonly meant the concentration at which the effect is half-maximal. A high value points to a less potent agent. By Ki is commonly meant the equilibrium dissociation constant of an inhibitor or competing ligand from its target.
